Data reported in patent publication US9056119B2, “VEGF production promoter” (Kao Corporation, priority 2010, dated 2015).

Test system: VEGF
Test: Effect on production of VEGF: amount of VEGF secreted in culture supernatant, determined by ELISA
Type: cell-based
Conditions: normal human newborn preputial epidermal keratinocytes (NHEK), 16 hours, control defined as 1
Protocol: Normal human newborn preputial epidermal keratinocytes (Kurabo Industries Ltd.: frozen NHEK (F) Lot. No. 061130-902) were used in a test. The cells were inoculated into three six-well microplates at 2×10^4 cells/mL per well. Culture was carried out in Defined keratinocyte-SFM (SFM medium, Gibco) under conditions of 2% CO2 and 37° C. After the cell density reached 50 to 60% confluence, the medium was exchanged for additive-free Defined keratinocyte-SFM medium (SFM (−) medium). The cells were conditioned to the SFM (−) medium for 24 hours, and the medium was then exchanged for an SFM (−) medium supplemented with an arbitrary concentration of the triterpenoid saponin obtained in Example 1. Then, the test was started.
It should be noted that a compound-free SFM (−) medium was used as a negative control. 16 hours after the start of the test, the media were collected, and the amounts of VEGF secreted in the supernatants of the cultures were determined using an ELISA kit (R&D Systems). The amount of VEGF produced in the control was defined as 1, and relative values to the control value were used for evaluation.

Row | Compound | Relative value of secreted VEGF amount (20 μg/mL) | Relative value of secreted VEGF amount (100 μg/mL) | Relative value of secreted VEGF amount (200 μg/mL)
1 | C[C@@H]1C[C@H]2O[C@]3(O[C@H]2C(C)(C)O)[C@H]1[C@@]1(C)CC[C@@]24C[C@@]25CC[C@H](O[C@@H]2OC[C@@H](O)[C@@H](O)C2O)C(C)(C)C5CC=C4[C@]1(C)[C@H]3O (stereo partly drawn) [Compound 2, 24-epi-7,8-Didehydrocimigenol-3-xyloside] | 2.32 | 0.40 | 
2 | CC(=O)O[C@H]([C@H]1C[C@@H](C)[C@H]2[C@@](O)(O1)[C@H](O)[C@@]1(C)C3=CCC4C(C)(C)[C@@H](O[C@@H]5OC[C@@H](O)[C@@H](O)C5O)CC[C@@]45C[C@@]35CC[C@]21C)C(C)(C)O (stereo partly drawn) [Compound 1, 7,8-Didehydro-24-O-acetylhydroshengmanol-3-O-β-xyloside] | 2.19 | 3.65 | 5.69
3 | C[C@H](CC(=O)C1OC1(C)C)[C@H]1C(=O)C[C@@]2(C)C3=CCC4C(C)(C)[C@@H](O[C@@H]5OC[C@@H](O)[C@@H](O)C5O)CC[C@@]45C[C@@]35C(O)C[C@]12C (some centres unmarked) [Compound 3, Cimicifugoside H-1] | 1.19 | 2.50 | 2.82
